Source: US20130053337A1, “GUANIDINYLATED AMINOGLYCOSIDE-LIPID CONJUGATES” (UNIVERSITY OF MANITOBA, priority 2010, published 2013)
Converted amounts (≈) assume the structure as drawn.

How the values were obtained:
[1] = test system: E. coli (amikacin MIC 32 mg/L) CAN-ICU 63074; conditions: E. coli CAN-ICU 63074; Zhanel et al., 2008; cited from earlier work
S. aureus ATCC 29213 = experiment: MIC, broth macrodilution (CLSI); format: cell-based, Staphylococcus aureus; conditions: S. aureus ATCC29213
Method: (§1) All experiments were performed in duplicate.
(§2) Bacterial isolates studied included both reference strains obtained from the American Type Culture Collection (ATCC) as well as clinical strains obtained from the CAN-ICU study which was a national surveillance study assessing the prevalence of antimicrobial resistant pathogens in Canadian intensive care units (Zhanel et al., 2008). Isolates were kept frozen in skim milk at −80° C. until minimum inhibitory concentration (MIC) testing was carried out. Following two subcultures from frozen stock, the in vitro activities of peptides were determined by macrobroth dilution in accordance with the Clinical and Laboratory Standards Institute (CLSI) 2006 guidelines (Zhanel et al., 2008). Stock solutions of peptides were prepared and dilutions made as described by CLSI. Test tubes contained doubling antimicrobial dilutions of cation adjusted Mueller-Hinton broth and inoculated to achieve a final concentration of approximately 5×10^5 cfu/ml then incubated in ambient air for 24 hours prior to reading. Colony counts were performed periodically to confirm inocula. Quality control was regularly performed using ATCC QC organisms.

MRSA ATCC 33592 = experiment: MIC, broth macrodilution (CLSI); format: cell-based, methicillin-resistant Staphylococcus aureus; conditions: MRSA ATCC33592
Method: as §1, §2

[2] = test system: S. epidermidis ATCC 14990; experiment: MIC, broth macrodilution (CLSI); format: cell-based, Staphylococcus epidermidis; conditions: S. epidermidis ATCC14990
Method: as §1, §2

MRSE CAN-ICU 61589 = experiment: MIC, broth macrodilution (CLSI); format: cell-based, methicillin-resistant Staphylococcus epidermidis
Method: as §1, §2

S. pneumoniae ATCC 49619 = experiment: MIC, broth macrodilution (CLSI), broth with 5% laked horse blood; format: cell-based, Streptococcus pneumoniae; conditions: S. pneumoniae ATCC49619
Method: as §1, §2

[3] = test system: E. coli (amikacin MIC 32 mg/L) CAN-ICU 63074; experiment: MIC, broth macrodilution (CLSI); format: cell-based; conditions: E. coli CAN-ICU 63074
Method: as §1, §2

[4] = test system: E. coli (gentamicin-resistant) CAN-ICU 61714; experiment: MIC, broth macrodilution (CLSI); format: cell-based; conditions: E. coli CAN-ICU 61714
Method: as §1, §2

E. coli ATCC 25922 = experiment: MIC, broth macrodilution (CLSI); format: cell-based; conditions: E. coli ATCC25922
Method: as §1, §2

[5] = test system: P. aeruginosa (gentamicin-resistant) CAN-ICU 62308; experiment: MIC, broth macrodilution (CLSI); format: cell-based; conditions: P. aeruginosa CAN-ICU 62308
Method: as §1, §2

P. aeruginosa ATCC 27853 = experiment: MIC, broth macrodilution (CLSI); format: cell-based; conditions: P. aeruginosa ATCC27853
Method: as §1, §2

[6] = test system: E. coli (gentamicin-resistant) CAN-ICU 61714; conditions: E. coli CAN-ICU 61714; Zhanel et al., 2008; cited from earlier work
[7] = test system: P. aeruginosa (gentamicin-resistant) CAN-ICU 62308; conditions: P. aeruginosa CAN-ICU 62308; Zhanel et al., 2008; cited from earlier work
[8] = test system: sheep red blood cell (erythrocytes); experiment: Hemolytic assay (in vitro toxicity); conditions: 100 mg/L; sheep erythrocytes; percent hemolysis
Method: Antibacterial activity against Gram-positive and Gram-negative microorganisms was tested via broth macrodilution tests using CLSI methodology (Zhanel et al., 2008). Stock solutions of cationic lipids in water were brought to a concentration of 512 mg/L. Organisms were subcultured and isolated on blood agar, suspended in 3 mL of Mueller-Hinton broth at the turbidity of a […], and diluted to approximately 10^5 cfu/mL before introduction into tubes containing serially diluted lipopeptide antibiotic in Mueller-Hinton broth. Activity testing against S. pneumoniae used broth supplemented with laked horse blood to give 5% horse blood in experimental tubes. Turbidity of lipopeptide solution in broth required creation of control tubes lacking organisms serving as turbidity controls. All tubes were incubated overnight for 16-20 h at 37° C. […] All experiments were performed in duplicate. In-vitro toxicity was determined using a sheep red blood cell hemolytic assay as previously described (Dathe et al., 1996).
In vitro toxicity was determined using a sheep red blood cell (erythrocytes) hemolytic assay (Dathe et al., 1996). […] Erythrocytes were washed and resuspended in Tris buffered saline. The cell suspension was combined with varying concentrations (low to very high) of test and control antimicrobials (e.g., aminoglycosides and APTCs). The samples were centrifuged and the absorbance of the supernatants measured at 540 nm. Tris buffered saline and Triton X were used as negative and positive controls, respectively. The toxicity was assessed by percent hemolysis.

[9] = test system: methicillin-resistant S. aureus (MRSA); conditions: Bera et al., 2008; cited from earlier work

Compound	MIC (strain description) [1] [µg/mL]	MIC (S. aureus ATCC 29213) [µg/mL]	MIC (MRSA ATCC 33592) [µg/mL]	MIC [2] [µg/mL]	MIC (MRSE CAN-ICU 61589) [µg/mL]	MIC (S. pneumoniae ATCC 49619) [µg/mL]	MIC [3] [µg/mL]	MIC [4] [µg/mL]	MIC (E. coli ATCC 25922) [µg/mL]	MIC [5] [µg/mL]	MIC (P. aeruginosa ATCC 27853) [µg/mL]	MIC (strain description) [6] [µg/mL]	MIC (strain description) [7] [µg/mL]	hemolytic activity at 100 mg/L [8] [%]	MIC [9] [µg/mL]
NCC[C@H](O)C(=O)N[C@@H]1C[C@H](N)[C@@H](O[C@H]2O[C@H](CN)[C@@H](O)[C@H](O)[C@H]2O)[C@H](O)[C@H]1O[C@H]1O[C@H](CO)[C@@H](O)[C@H](N)[C@H]1O [amikacin]	32 (≈ 54.6 µM)	–	–	–	–	–	–	–	–	–	–	–	–	–	–
Gentamicin [reference compound]	–	1	2	0.25	32	4	8	128	1	128	8	> 32	> 32	–	–
NC[C@@H]1O[C@H](O[C@H]2[C@@H](O)[C@H](O[C@@H]3[C@@H](O)[C@H](N)C[C@H](N)[C@H]3O[C@H]3O[C@H](CN)[C@@H](O)[C@H](O)[C@H]3N)O[C@@H]2CO)[C@H](N)[C@@H](O)[C@@H]1O [Neomycin B, reference compound]	–	1 (≈ 1.63 µM)	256 (≈ 416 µM)	0.25 (≈ 0.407 µM)	0.5 (≈ 0.813 µM)	32 (≈ 52.1 µM)	–	8 (≈ 13 µM)	4 (≈ 6.51 µM)	512 (≈ 833 µM)	512 (≈ 833 µM)	–	–	<0.3	256 (≈ 416 µM)
